Source: US11945824B2, “Heterocyclic compounds as anti-viral agents” (priority 2020, dated 2024)

How the values were obtained:
[1] = system: Human RSV-A (“Long” strain); experiment: RSV-A assay (CPE, ATPlite readout in Hep-2 cells); type: cell-based; details: human respiratory syncytial virus, 120 h; Hep-2 cells, MOI 0.1, 5-day incubation, ATPlite; read-out: Human RSV-A (“Long” strain) EC50
Text: Hep-2 cells, (originally derived from tumors grown in irradiated-cortisonised weanling rats that had been injected with epidermoid carcinoma tissue from a person's larynx, but later found to be indistinguishable from HeLa cells by PCR DNA analysis), were used for the culturing of genotype A, “Long” strain RSV. Flasks were inoculated with RSV and viral stocks were collected once cytopathic effect (CPE) was greater than 90%. Viral stocks in 25% sucrose media were snap frozen using liquid nitrogen to increase viral stability. Viral stock titers were quantified by tissue culture infectious dose 50% (TCID50) using 8,000 cells per well and 3-fold viral dilutions across a 96-well plate, cultured for 4 days. Viral stock titers were also quantified by a plaque forming unit assay, as described elsewhere.
Following extensive parameter testing, the final assay is run as follows: Hep-2 cells are seeded into the inner 60 wells of a 96-well plate at 8,000 cells per well in a volume of 50 μL using Growth Media (DMEM without phenol red, 1% L-Glut, 1% Penn/Strep, 1% nonessential amino acids, 10% heat-inactivated FBS). 2-fold serial dilutions of control and test compounds are added to the wells in duplicate in a total volume of 25 μL. Viral stock is then added to the wells at a multiplicity of infection (MOI) of 0.1 in a volume of 25 μL, bringing the total volume of each well to 100 μL. The MOI is calculated using the PFU/mL, or TCID50 if unavailable. Each 96-well plate has a control column of 6 wells with cells and virus but no compound (negative control, max CPE), a column with cells but no compound or virus (positive control, minimum CPE), and a column with no cells or virus or compound (background plate/reagent control). The control wells with cells but no virus are given an additional 25 μL of growth media containing an equal quantity of sucrose as those wells receiving the viral stock in order to keep consistent in media and volume conditions. The outer wells of the plate are filled with 125 μL of moat media (DMEM, 1% Penn/Strep) to act as a thermal and evaporative moat around the test wells. Following a 5-day incubation period, the plates are read using ATPlite (50 uL added per well), which quantifies the amount of ATP (a measure of cell health) present in each well. Assay plates are read using the Envision luminometer. […] EC50 ranges are as follows: A<0.2 μM; B≥0.2 μM.

[2] = system: rHMPV-GFP (recombinant HMPV CAN97-83, MPV-GFP1); experiment: HMPV antiviral assay (eGFP fluorescence in Vero E6 cells); type: cell-based; details: human metapneumovirus, Vero C1008, 120 h, read-out: rHMPV-GFP EC50
Protocol: Method for HMPV Antiviral Assay
HMPV antiviral activity was evaluated using a recombinant version of HMPV CAN97-83 engineered to contain the coding sequence for enhanced green fluorescence protein (eGFP) in the 3′ end of the virus genome (MPV-GFP1, ViraTree). Vero E6 cells (ATCC #CCL-7) were seeded at a density of 12,000 cells/100 μL/well into 96-well cell plates (VENDOR) one day prior to the assay. On the day of screening, the cell culture medium was aspirated from the wells and cells were washed twice with serum-free Eagle's Modified Essential Medium (EMEM, ATCC #) containing 1% penicillin-streptomycin (Invitrogen) (SF-EMEM). Cell washes were performed by dispensing 100 μL SF-EMEM per well and immediately aspirating the wash medium from the well. Following the second wash step, serum-free OptiMEM (Invitrogen, Cat No.) (SF-OptiMEM) containing 0.5 μg/mL TPCK-Trypsin (VENDOR) and 1% penicillin-streptomycin was added to the cells at 50 μL/well. Compounds were added into the 96-well plates using a JANUS automated liquid handling system (VENDOR). Compounds were initially diluted 1:50 into an intermediate 96-well plate containing SF-OptiMEM prior to transfer to the assay plate (25 μL/well). Each of the test compounds were tested in duplicate wells at final concentrations starting from 8 μM or 2 μM using ½ stepwise dilutions for a total of 8 points. Virus infection was performed by preparing a working stock of MPV-GFP1 at a multiplicity of infection (MOI) equal to 0.05/25 μL and aliquoting 25 μL of virus inoculum to the compound and positive control wells. SF-OptiMEM was added (25 μL/well) to the appropriate wells to serve as a virus-free negative control for the assay. The final DMSO concentration of all wells is 0.5%. Plates were incubated at 32° C., 5% CO2 for 5 days. After 5 days incubation, eGFP fluorescence intensity was measured at […] using a Spectramax i3X plate reader (VENDOR).
Percent viral inhibition was calculated using the following equation: y=[[…](XQ/XP)]×100 Where XQ is the fluorescence intensity measured in a well containing recombinant MPV-GFP1-infected, compound-treated cells and XP is the average fluorescence intensity measured in the wells containing untreated cells infected with recombinant virus. EC50 values were then calculated by non-linear regression using a four-parameter curve logistic equation. The curve fit model employed was XLFit Dose Response One Site Model 200: y=(A+(B/(1+((x/C)^D)))) Where A is the minimum y value, B is the maximum y value, C is the log EC50 value, and D is the slope factor. The EC50 for each compound is listed in Table 2 and EC50 ranges are as follows: A<0.2 μM; B≥0.2 μM.

Compound | EC50 [1] [nM] | EC50 [2] [nM]
COc1cc(C(=O)NC[C@](O)(c2cc3c(c(-c4ccc(F)cc4)n2)OC[C@]3(C)n2cnnc2)C2CC2)cc2cccnc12 [Example 16, N-((S)-2-cyclopropyl-2-((R)-7-(4-fluorophenyl)-3-methyl-3-(4H-1,2,4-triazol-4-yl)-2,3-dihydrofuro[2,3-c]pyridin-5-yl)-2-hydroxyethyl)-8-methoxyquinoline-6-carboxamide] | < 200 | > 200
COc1cc(C(=O)NC[C@](O)(c2cc3c(c(-c4ccc(F)cc4)n2)OC[C@]3(C)n2ccnn2)C2CC2)ccc1OC1CC1 [Example 17, 4-cyclopropoxy-N-((S)-2-cyclopropyl-2-((R)-7-(4-fluorophenyl)-3-methyl-3-(1H-1,2,3-triazol-1-yl)-2,3-dihydrofuro[2,3-c]pyridin-5-yl)-2-hydroxyethyl)-3-methoxybenzamide] | < 200 | < 200
COc1cc(C(=O)NC[C@](O)(c2cc3c(c(-c4ccc(F)cc4)n2)OC[C@]3(C)c2cnn[nH]2)C(F)(F)F)cc2cccnc12 [Example 18, 8-methoxy-N-((S)-3,3,3-trifluoro-2-((S)-7-(4-fluorophenyl)-3-methyl-3-(1H-1,2,3-triazol-5-yl)-2,3-dihydrofuro[2,3-c]pyridin-5-yl)-2-hydroxypropyl)quinoline-6-carboxamide] | < 200 | > 200
COc1cc(C(=O)NC[C@](O)(c2cc3c(c(-c4ccc(F)cc4)n2)OC[C@]3(C)c2ncc[nH]2)C(F)(F)F)cc2cccnc12 [Example 20, 8-methoxy-N-((S)-3,3,3-trifluoro-2-((S)-7-(4-fluorophenyl)-3-(1H-imidazol-2-yl)-3-methyl-2,3-dihydrofuro[2,3-c]pyridin-5-yl)-2-hydroxypropyl)quinoline-6-carboxamide] | < 200 | > 200
C[C@]1(c2nc3ccccc3[nH]2)COc2c1cc([C@@](O)(CNC(=O)c1cc(OC3CC3)c3ncccc3c1)C(F)(F)F)nc2-c1ccc(F)cc1 [Example 21, N-((S)-2-((S)-3-(1H-benzo[d]imidazol-2-yl)-7-(4-fluorophenyl)-3-methyl-2,3-dihydrofuro[2,3-c]pyridin-5-yl)-3,3,3-trifluoro-2-hydroxypropyl)-8-cyclopropoxyquinoline-6-carboxamide] | < 200 | > 200
C[C@]1(c2cc[nH]n2)COc2c1cc([C@@](O)(CNC(=O)c1cc(OC3CC3)c3ncccc3c1)C(F)(F)F)nc2-c1ccc(F)cc1 [Example 22, 8-cyclopropoxy-N-((S)-3,3,3-trifluoro-2-((S)-7-(4-fluorophenyl)-3-methyl-3-(1H-pyrazol-3-yl)-2,3-dihydrofuro[2,3-c]pyridin-5-yl)-2-hydroxypropyl)quinoline-6-carboxamide] | < 200 | > 200
COc1cc(C(=O)NC[C@](O)(c2cc3c(c(-c4ccc(F)cc4)n2)OC[C@]3(C)Cc2ncc[nH]2)C(F)(F)F)cc2cccnc12 [Example 23, N-((S)-2-((R)-3-((1H-imidazol-2-yl)methyl)-7-(4-fluorophenyl)-3-methyl-2,3-dihydrofuro[2,3-c]pyridin-5-yl)-3,3,3-trifluoro-2-hydroxypropyl)-8-methoxyquinoline-6-carboxamide] | < 200 | < 200
